From patent publication US20190062709A1, “METHODS AND COMPOSITIONS FOR MAINTENANCE OF HEMATOPOIETIC STEM CELLS WITH PRESERVATION OF SELF-RENEWAL CAPACITY” (The Trustees of Columbia University in the City of New York, priority 2017, published 2019)
Like-named read-outs stand apart in the source and are kept apart here.

Assays:
[1] = tested on: HSCs; assay: Calcium concentration of HSCs treated with metabolic inhibitors; assay type: cell-based, mouse
[2] = 37° C., assumed based on previous studies; read-out: Indo-1 dissociation constant (Kd); cited from earlier work
[3] = tested on: murine HSCs; details: literature report; cited from earlier work
[4] = target: T1, murine AHR (Mus musculus, UniProt P30561); details: literature report; cited from earlier work
T1 sequence (P30561 10-848): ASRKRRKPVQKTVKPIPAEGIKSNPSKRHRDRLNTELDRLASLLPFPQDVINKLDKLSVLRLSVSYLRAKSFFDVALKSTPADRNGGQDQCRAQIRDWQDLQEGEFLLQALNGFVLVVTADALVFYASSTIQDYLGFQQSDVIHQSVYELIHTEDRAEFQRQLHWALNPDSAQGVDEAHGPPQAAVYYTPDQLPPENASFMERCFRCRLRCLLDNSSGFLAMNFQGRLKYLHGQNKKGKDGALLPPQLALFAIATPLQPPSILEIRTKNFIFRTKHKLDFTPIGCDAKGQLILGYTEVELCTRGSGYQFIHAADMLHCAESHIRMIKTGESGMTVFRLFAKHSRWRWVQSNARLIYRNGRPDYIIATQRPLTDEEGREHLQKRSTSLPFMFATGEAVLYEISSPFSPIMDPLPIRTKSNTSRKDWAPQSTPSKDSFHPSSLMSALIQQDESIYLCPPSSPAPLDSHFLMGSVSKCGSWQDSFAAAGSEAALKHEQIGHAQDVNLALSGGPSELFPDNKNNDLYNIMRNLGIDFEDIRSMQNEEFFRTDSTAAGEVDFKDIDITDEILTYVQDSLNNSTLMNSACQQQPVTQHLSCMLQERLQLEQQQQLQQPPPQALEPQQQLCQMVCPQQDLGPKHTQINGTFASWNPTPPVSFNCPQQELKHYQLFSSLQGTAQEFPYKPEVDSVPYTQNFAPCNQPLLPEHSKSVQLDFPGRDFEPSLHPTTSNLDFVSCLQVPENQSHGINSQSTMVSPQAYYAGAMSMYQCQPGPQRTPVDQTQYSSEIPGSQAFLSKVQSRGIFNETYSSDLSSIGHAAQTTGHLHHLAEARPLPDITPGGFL

[5] = tested on: human progenitor/stem cells; details: literature report; cited from earlier work
[6] = tested on: HSCs; assay: Competitive transplantation of cultured HSCs into irradiated recipient mice (donor chimerism); assay type: in vivo, mouse; details: 10% of culture transplanted
Experimental: Long term LT-HSCs cultures were carried out using Ca^2+-free DMEM (U.S. Biologicals) reconstituted with 4.5 g/L glucose and 1.1 g/L sodium bicarbonate at pH 7.4. Complete media was prepared with Ca^2+-free DMEM supplemented with 1× StemPro34 SFM (Invitrogen), 10 mM HEPES, 200 ng/mL of recombinant m-SCF and 30 ng/mL m-TPO (Peptrotech, Rocky Hill, N.J.). Media of various calcium concentrations was prepared as serial dilutions from stock complete media at 2 mM. Cultures were initiated with 3000-4000 purified HSCs (LSK+CD48−F1t3−CD150+) and cultured in round bottom 96 well plates with 150 uL of media in 5% O2 at 37° C. Half of the media volume was changed every 3 days and split 1:2 every 7 days. Cultures were counted at the time of phenotypic flow cytometric percentage analysis to determine phenotypic HSC counts at the end of culture. Based on calculations, HSC yields were expressed as phenotypic HSC at the end of culture divided by phenotypic HSC count at the start of culture.
All transplant experiments were initiated with LT-HSC cultures consisting of CD45.1 donor HSCs. […]
To test HSC function, irradiated recipient mice were competitively transplanted with 10% of the cultures, either at initiation or after 2 weeks of culture, and analyzed 15 weeks after transplantation. […] Donor contribution correlated with calculated phenotypic HSC cell dose transplanted (FIG. 2D). […]

[7] = purified HSCs treated 15 min, compared to DMSO control

SMILES: O=C(O)CI [iodoacetic acid]
- Cai^2+ of HSCs [1]: increased

SMILES: Cc1ccc(N(CC(=O)O)CC(=O)O)c(OCCOc2cc(-c3cc4ccc(C(=O)O)cc4[nH]3)ccc2N(CC(=O)O)CC(=O)O)c1 [Indo-1]
- Kd [2]: 237 nM

SMILES: CC(C)n1cnc2c(NCCc3ccc(O)cc3)nc(-c3csc4ccccc34)nc21 [SR1, stemregenin 1]
- expansion of murine HSCs [3]: does not lead to expansion
- inhibition of murine AHR [4]: does not inhibit
- expansion of human progenitor/stem cells capable of repopulating irradiated immunodeficient mice [5]: led to expansion

SMILES: CC[C@H]1/C=C/C=C/C[C@@H](C)[C@H](O)[C@@](C)(O)C(=O)[C@@H](C)[C@H](O)[C@@H](C)C(=O)[C@@H](C)[C@H](O)[C@@H](C)/C=C/C(=O)O[C@@H]2[C@H](C)[C@H](CC1)O[C@]1(CC[C@H](C)[C@H](C[C@@H](C)O)O1)[C@H]2C [oligomycin]
- Cai^2+ of HSCs [1, 7]: not inhibition of mitochondrial respiration increased

SMILES: O=C(O)/C(S)=C/c1ccc(I)cc1 [PD150606, (Z)-3-(4-Iodophenyl)-2-mercapto-2-propenoic acid]
- competitive repopulation capacity ([6]; PD150606 25 μM added to high calcium (2.0 mM) 2-week HSC cultures): increased competitive repopulation capacity
- competitive repopulation capacity ([6]; PD150606 25 μM added to low calcium (0.02 mM) 2-week HSC cultures): no effect

SMILES: N#CC(C#N)=NNc1ccc(OC(F)(F)F)cc1 [FCCP]
- Cai^2+ of HSCs at higher doses ([1]; higher doses of the mitochondrial inhibitors, 15 min): further reduction
- Cai^2+ of HSCs [1, 7]: not inhibition of mitochondrial respiration increased
